In series [1] the test system is Glomerella lagenarium (Colletotrichum lagenarium). Briefly: Glomerella lagenarium (Colletotrichum lagenarium)/Liquid Culture (Anthracnose). It counts as cell-based. To be noted: Colletotrichum orbiculare; 200 ppm in the formulation; liquid culture, growth inhibition photometrically 3 to 4 days after application; compared to untreated control; read-out: disease control. On the procedure: Glomerella lagenarium (Colletotrichum lagenarium)/Liquid Culture (Anthracnose) Conidia of the fungus from cryogenic storage are directly mixed into nutrient broth (PDB potato dextrose broth). After placing a (DMSO) solution of test compound into a microtiter plate (96-well format), the nutrient broth containing the fungal spores is added. The test plates are incubated at 24° C. and the inhibition of growth is measured photometrically 3 to 4 days after application.

Series [2] deals with Monographella nivalis (Microdochium nivale). Nature of the series: Monographella nivalis (Microdochium nivale)/Liquid Culture (Foot Rot Cereals). The class given is cell-based. The settings on record: 200 ppm in the formulation, liquid culture, growth inhibition photometrically 4-5 days after application, compared to untreated control, read-out: disease control. As to the method: Monographella nivalis (Microdochium nivale)/Liquid Culture (Foot Rot Cereals) Conidia of the fungus from cryogenic storage are directly mixed into nutrient broth (PDB potato dextrose broth). After placing a (DMSO) solution of test compound into a microtiter plate (96-well format), the nutrient broth containing the fungal spores is added. The test plates are incubated at 24° C. and the inhibition of growth is determined photometrically 4-5 days after application.

The subject of series [3] is Mycosphaerella arachidis (Cercospora arachidicola). Nature of the series: Mycosphaerella arachidis (Cercospora arachidicola)/Liquid Culture (Early Leaf Spot). It counts as cell-based. The settings on record: 200 ppm in the formulation, liquid culture, growth inhibition photometrically 4-5 days after application, compared to untreated control, read-out: disease control. As to the method:
Mycosphaerella arachidis (Cercospora arachidicola)/Liquid Culture (Early Leaf Spot) Conidia of the fungus from cryogenic storage are directly mixed into nutrient broth (PDB potato dextrose broth). After placing a (DMSO) solution of test compound into a microtiter plate (96-well format), the nutrient broth containing the fungal spores is added. The test plates are incubated at 24° C. and the inhibition of growth is determined photometrically 4-5 days after application.

For series [4], the system named is Mycosphaerella graminicola (Septoria tritici). Nature of the series: Mycosphaerella graminicola (Septoria tritici)/Liquid Culture (Septoria Blotch). It counts as cell-based. To be noted: Zymoseptoria tritici; 200 ppm in the formulation; liquid culture, growth inhibition photometrically 4 to 5 days after application; compared to untreated control; read-out: disease control. As to the method:
Mycosphaerella graminicola (Septoria tritici)/Liquid Culture (Septoria Blotch) Conidia of the fungus from cryogenic storage are directly mixed into nutrient broth (PDB potato dextrose broth). After placing a (DMSO) solution of test compound into a microtiter plate (96-well format), the nutrient broth containing the fungal spores is added. The test plates are incubated at 24° C. and the inhibition of growth is determined photometrically 4 to 5 days after application.

Series [5] deals with Puccinia recondita f. sp. tritici. Nature of the series: Puccinia recondita f. sp. tritici/Wheat/Leaf Disc Preventative (Brown Rust). The settings on record: foliar, 200 ppm in the formulation, wheat leaf segments cv. Kanzler, inoculated 1 day after application, assessed 7-9 days after application, compared to untreated, read-out: disease control. The class given is in vivo. On the procedure: Puccinia recondita f. sp. tritici/Wheat/Leaf Disc Preventative (Brown Rust) Wheat leaf segments cv. Kanzler are placed on agar in multiwell plates (24-well format) and sprayed with the formulated test compound diluted in water. The leaf disks are inoculated with a spore suspension of the fungus 1 day after application. The inoculated leaf segments are incubated at 19° C. and 75% rh under a light regime of 12 h light/12 h darkness in a climate cabinet and the activity of a compound is assessed as percent disease control compared to untreated when an appropriate level of disease damage appears in untreated check leaf segments (7-9 days after application).

The subject of series [6] is Botryotinia fuckeliana (Botrvtis cinerea). Nature of the series: Botryotinia fuckeliana (Botrvtis cinerea)/Liquid Culture (Gray Mould). The class given is cell-based. The settings on record: Botrytis cinerea; 200 ppm in the formulation; liquid culture, growth inhibition photometrically 3-4 days after application; compared to untreated control; read-out: disease control. On the procedure: Botryotinia fuckeliana (Botrvtis cinerea)/Liquid Culture (Gray Mould) Conidia of the fungus from cryogenic storage are directly mixed into nutrient broth (Vogels broth). After placing a (DMSO) solution of test compound into a microtiter plate (96-well format), the nutrient broth containing the fungal spores is added. The test plates are incubated at 24° C. and the inhibition of growth is determined photometrically 3-4 days after application.

Series [7] has as its system Phaeosphaeria nodorum (Septoria nodorum). Nature of the series: Phaeosphaeria nodorum (Septoria nodorum)/Wheat/Leaf Disc Preventative (Glume Blotch). It counts as in vivo. The settings on record: Parastagonospora nodorum, foliar; 200 ppm in the formulation; wheat leaf segments cv. Kanzler, inoculated 2 days after application, assessed 5-7 days after application; compared to untreated; read-out: disease control. On the procedure: Phaeosphaeria nodorum (Septoria nodorum)/Wheat/Leaf Disc Preventative (Glume Blotch) Wheat leaf segments cv. Kanzler are placed on agar in a multiwell plate (24-well format) and sprayed with the formulated test compound diluted in water. The leaf disks are inoculated with a spore suspension of the fungus 2 days after application. The inoculated test leaf disks are incubated at 20° C. and 75% rh under a light regime of 12 h light/12 h darkness in a climate cabinet and the activity of a compound is assessed as percent disease control compared to untreated when an appropriate level of disease damage appears in untreated check leaf disks (5-7 days after application).

Our source for the inhibition of growth, pest or weed control and melting point values is patent publication US11629129B2, “Microbiocidal picolinamide derivatives” (SYNGENTA PARTICIPATIONS AG, priority 2018, dated 2023).

Bounds are passed on as bounds.

For the compound `COc1ccnc(C(=O)N[C@@H](C)C(=O)O[C@@H](C)c2ccc(-c3ccc(Cl)cn3)cc2)c1O` [I.aa.001, [(1S)-1-[4-(5-chloro-2-pyridyl)phenyl]ethyl] (2S)-2-[(3-hydroxy-4-methoxy-pyridine-2-carbonyl)amino] propanoate], the melting point fell in the range of 144 to 145 °C. For the same compound, the inhibition of growth at 200 ppm in series [1] is at least 80%. Besides, in series [2], the inhibition of growth at 200 ppm was at least 80%. Besides, the inhibition of growth at 200 ppm in series [3] is at least 80%. For the same compound, in series [4], the inhibition of growth at 200 ppm is at least 80%. In addition, the pest or weed control at 200 ppm in series [5] was at least 80%.
For `COc1ccnc(C(=O)N[C@@H](C)C(=O)O[C@@H](C)c2cccc(Oc3ccccc3)c2)c1O` [I.aq.001, [(1S)-1-(3-phenoxyphenyl)ethyl] (2S)-2-[(3-hydroxy-4-methoxy-pyridine-2-carbonyl)amino] propanoate], the inhibition of growth at 200 ppm in series [6], in series [1] and in series [4] was at least 80% throughout. Also, the pest or weed control at 200 ppm in series [7] and in series [5] was at least 80% each time.
Consider `COc1ccnc(C(=O)N[C@@H](C)C(=O)O[C@@H](C)c2ccc(-c3ccccc3C)cc2)c1O` [I.h.001, [(1S)-1-[4-(o-tolyl)phenyl]ethyl] (2S)-2-[(3-hydroxy-4-methoxy-pyridine-2-carbonyl)amino] propanoate], for which the inhibition of growth at 200 ppm in series [6], in series [1], in series [2], in series [3] and in series [4] was at least 80% in each case. Also, the pest or weed control at 200 ppm in series [7] and in series [5] was at least 80% in each case.
As to `COc1ccnc(C(=O)N[C@@H](C)C(=O)O[C@@H](C)c2ccc(-c3ccccc3COC(C)(C)C)cc2)c1O` [I.k.001, [(1S)-1-[4-[2-(tert-butoxymethyl)phenyl]phenyl]ethyl] (2S)-2-[(3-hydroxy-4-methoxy-pyridine-2-carbonyl)amino] propanoate], the inhibition of growth at 200 ppm in series [6], in series [1], in series [3] and in series [4] was at least 80% throughout. The pest or weed control at 200 ppm in series [7] and in series [5] was at least 80% in each case.
For `COc1ccnc(C(=O)N[C@@H](C)C(=O)O[C@@H](C)c2ccc(-c3cccc(C)c3C)cc2)c1O` [I.m.001, [(1S)-1-[4-(2,3-dimethylphenyl)phenyl]ethyl] (2S)-2-[(3-hydroxy-4-methoxy-pyridine-2-carbonyl)amino] propanoate], the inhibition of growth at 200 ppm in series [6], in series [1], in series [2], in series [3] and in series [4] was at least 80% in each case. Further, the pest or weed control at 200 ppm in series [7] and in series [5] was at least 80% in each case.
Regarding `COc1ccnc(C(=O)N[C@@H](C)C(=O)O[C@@H](C)c2ccc(-c3ccc(Cl)cc3C)cc2)c1O` [I.n.001, [(1S)-1-[4-(4-chloro-2-methyl-phenyl)phenyl]ethyl] (2S)-2-[(3-hydroxy-4-methoxy-pyridine-2-carbonyl)amino] propanoate], the inhibition of growth at 200 ppm in series [6], in series [1], in series [2], in series [3] and in series [4] was at least 80% in each case. For the same compound, the pest or weed control at 200 ppm in series [7] and in series [5] was at least 80% each time.
As for `COc1ccnc(C(=O)N[C@@H](C)C(=O)O[C@@H](C)c2ccc(-c3ccc(Br)cc3)cc2)c1O` [I.v.001, [(1S)-1-[4-(4-bromophenyl)phenyl]ethyl] (2S)-2-[(3-hydroxy-4-methoxy-pyridine-2-carbonyl)amino] propanoate], the inhibition of growth at 200 ppm in series [6], in series [1], in series [2], in series [3] and in series [4] was at least 80% each time. Also, the pest or weed control at 200 ppm in series [7] and in series [5] was at least 80% in each case.
On to `COc1ccnc(C(=O)N[C@@H](C)C(=O)O[C@@H](C)c2ccc(-c3ccc(C)cc3)cc2)c1O` [I.w.001, [(1S)-1-[4-(p-tolyl)phenyl]ethyl] (2S)-2-[(3-hydroxy-4-methoxy-pyridine-2-carbonyl)amino] propanoate], for which the inhibition of growth at 200 ppm in series [1], in series [2], in series [3] and in series [4] was at least 80% each time. Further, the pest or weed control at 200 ppm in series [7] and in series [5] was at least 80% each time.

A word on the melting point: it is the temperature, or range, at which the solid turns liquid.
